The values below are quoted from earlier work in US20100136109A1, “SUSTAINED RELEASE” (priority 2007, published 2010).

The term half-life denotes the time in which the quantity being followed falls by half.

SMILES strings stand for the structures.

For this data set the following is noted: in vivo.

`N[C@@H](Cc1cc(I)c(Oc2ccc(O)c(I)c2)c(I)c1)C(=O)O` [Formulation T3, triiodothyronine]: the half-life entry was “approx 12 hours”.

Turning to `N[C@@H](Cc1cc(I)c(Oc2cc(I)c(O)c(I)c2)c(I)c1)C(=O)O` [Formulation T4, thyroxine], the half-life was 170 h.
